From article PMC10766610, “DCAF1-based PROTACs with activity against clinically validated targets overcoming intrinsic- and acquired-degrader resistance” (Nature Communications, 2024)

Legend:
BRD9 [1] = molecular target: T1, BRD9 (Homo sapiens, UniProt Q9H8M2); experiment: Immunoblot of BRD9 in HEK293 BRD9-HiBiT/FF/CAS9 cells; format: cell-based; design: host or cells: HEK293/BRD9-HiBiT knock-in; clone and BRD9-HiBiT/CAS9/FF clone
T1 sequence (Q9H8M2 1-597): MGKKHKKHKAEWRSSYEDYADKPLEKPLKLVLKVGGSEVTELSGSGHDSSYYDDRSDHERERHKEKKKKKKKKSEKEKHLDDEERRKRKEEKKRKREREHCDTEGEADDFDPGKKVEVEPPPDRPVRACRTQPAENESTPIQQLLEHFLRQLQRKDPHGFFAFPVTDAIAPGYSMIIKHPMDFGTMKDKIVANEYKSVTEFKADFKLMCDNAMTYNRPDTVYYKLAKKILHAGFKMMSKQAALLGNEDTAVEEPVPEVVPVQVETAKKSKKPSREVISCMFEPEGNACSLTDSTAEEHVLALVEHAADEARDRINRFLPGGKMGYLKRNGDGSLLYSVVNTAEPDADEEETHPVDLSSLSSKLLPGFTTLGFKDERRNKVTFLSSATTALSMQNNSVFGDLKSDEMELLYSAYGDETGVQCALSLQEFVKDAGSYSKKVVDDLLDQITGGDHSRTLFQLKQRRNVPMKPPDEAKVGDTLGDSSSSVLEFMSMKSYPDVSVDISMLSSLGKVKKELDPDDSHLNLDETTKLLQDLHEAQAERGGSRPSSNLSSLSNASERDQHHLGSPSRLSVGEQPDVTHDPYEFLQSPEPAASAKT
Protocol: (§1) Whole cell lysates for immunoblotting were prepared by pelleting cells at 4 °C (300 g) for 3 min. Cell pellets were then washed 1x with PBS and resuspended in RIPA lysis buffer (VWR, cat # 97063-270) supplemented with protease (Thermo Scientific, cat # A32955) and phosphatase (Thermo Scientific, cat # A32957) inhibitor tablets. Lysates were clarified at 16,000 × g for 15 min at 4 °C prior to quantification by Lowry assay (Bio-Rad cat # 5000113 and cat # 5000114). Whole-cell lysates were loaded into 4–20% Criterion TGX Precast 18 well gels (Bio-Rad, cat # 5671094) and separated by electrophoreses at 120 V for 1 h. The gels were transferred to a nitrocellulose membrane using the Trans-Blot Turbo (Bio-Rad) for 7 min and then blocked for 1 h at room temperature in Odyssey blocking buffer (LICOR Biosciences, cat # 927-50000). Membranes were probed with the appropriate primary antibodies (diluted 1:1000) overnight at 4 °C in 20% Odyssey blocking buffer in 1x TBST. Membranes were washed three times with 1x TBST (5 min per wash), and then incubated with IRDye goat anti-mouse (LICOR, cat # 926-32210) or goat anti-rabbit (LICOR, cat # 926-32211) secondary antibody diluted 1:10,000 in 20% Odyssey blocking buffer for 1 h at room temperature. After three 5-min washes with 1x TBST, the immunoblots were visualized using the ODYSSEY Infrared Imaging System (LICOR). Alternatively, SDS-PAGE resolved proteins were transferred to a PVDF membrane using a wet blotting system (Invitrogen). Membranes were blocked in 5% Milk-PBS-Tween 20 for 1 h and incubated with primary antibody over night at 4 °C. Secondary antibodies (secondary antibody: anti-rabbit, goat pAb to Rb-IgG (Abcam, #7090); secondary antibody: anti-mouse, sheep IgG HRP-linked (GE healthcare, #NA931V)) were incubated for 1 h at room temperature (RT) before blots were developed on film using the detection kit SuperSignal West Femto Maximum Sensitivity Substrate (Thermo Fisher, #34096).

BRD9 [2] = molecular target: T1, BRD9; experiment: Capillary western of BRD9 in 768-O cells; format: cell-based; conditions: 768-O cells (lacking VHL), 2 h
Protocol: Protein peaks were analyzed using Compass for Simple Western version 5.0.1 (ProteinSimple), area under the curve for both α-tubulin ([…]) and BRD9 (90 kDa) per capillary was extracted and BRD9 area was normalized to α-tubulin area on a per-capillary basis before each sample was normalized to the DMSO for each run of three triplicates.

BTK kinase domain = molecular target: T2, BTK kinase domain (Homo sapiens, UniProt Q06187); experiment: BTK EPK assay (enzymatic inhibition); format: biochemical
T2 construct: BTK kinase domain was mixed in assay buffer
Protocol: BTK kinase domain was mixed in assay buffer containing 50 mM HEPES pH 7.5, 0.02% Tween20, 0.02 % bovine serum albumin, 1 mM DTT, 0.01 mM Na3VO4, 10 mM b-Glycerolphosphate, 18 mM MgCl2, 1 mM MnCl2 to a 2× concentration of 8 nM. This solution was added to pre-dispensed compound dilution series in black, 384 well -low dead volume plates (Greiner) and the reaction was initiated by the addition of ATP and a BTK consensus peptide (Sequence: 5-Fluo-Ahx-[…]-Nle-P-Nle-NAND-NH2) to a final assay concentrations of 0.047 mM and 0.002 mM, respectively in assay buffer. The reaction was stopped after 60 min at 32 °C by addition of the same volume of spot solution containing 100 mM HEPES pH 7.5, 5% DMSO, 10 mM EDTA, 0.015% Brij 35. Stopped reactions were analyzed on a Caliper LC3000, which was treated with the commercially available coating reagents CR−3 and CR-8 as instructed by the manufacturer. The relative intensities of phosphorylated peptide were calculated. Data was normalized to control wells containing 100 mM EDTA solution instead of the 2× kinase solutions (0%) and DMSO-only control wells (100%). Normalized data was fitted using a sigmoidal fit.

[3] = system: TMD8 WT and TMD8 CRBN resist. cells; experiment: CellTiter-Glo viability, TMD8 WT vs CRBN resist. cells; format: cell-based, human; conditions: CellTiter-Glo proliferation
Protocol: TMD8 cells were grown in the presence of a CRBN-BTK PROTAC CBt using a gradual dose increase. Start treatment was 0.1 nM for 6 weeks, followed by 3 weeks at 0.4 nM and another 4 weeks at 10 nM to finally obtain CBt resistant TMD8 cells (TMD8 CRBN resist.).
d) Viability measured by cell titer-Glo for DBt-10 (green) vs (13) (purple) in WT (solid) vs CRBN resist.
(dotted) TMD8 cells. Data represents average ± standard deviation from n=3 replicates.
e) Repeat of the viability measured by cell titer-Glo for DBt-10 (green) vs (13) (purple) in WT (solid) vs
CRBN resist. (dotted) TMD8 cells with adjusted dose response range. Data represents average ±
standard deviation from n=3 replicates.
Source data are provided as a Source Data file

LYN = molecular target: T3, LYN (Homo sapiens, UniProt P07948); experiment: Immunoblot of LYN in HEK293T cells; format: cell-based; conditions: 6 h
T3 construct: host or cells: HEK293T
Protocol: as §1, with “Alternatively, SDS-PAGE resolved proteins were transferred to a PVDF membrane using a wet blotting system (Invitrogen). Membranes were blocked in 5% Milk-PBS-Tween 20 for 1 h and incubated with primary antibody over night at 4 °C. Secondary antibodies (secondary antibody: anti-rabbit, goat pAb to Rb-IgG (Abcam, #7090); secondary antibody: anti-mouse, sheep IgG HRP-linked (GE healthcare, #NA931V)) were incubated for 1 h at room temperature (RT) before blots were developed on film using the detection kit SuperSignal West Femto Maximum Sensitivity Substrate (Thermo Fisher, #34096).” left out

T2 sequence (Q06187 402-655 limits assumed): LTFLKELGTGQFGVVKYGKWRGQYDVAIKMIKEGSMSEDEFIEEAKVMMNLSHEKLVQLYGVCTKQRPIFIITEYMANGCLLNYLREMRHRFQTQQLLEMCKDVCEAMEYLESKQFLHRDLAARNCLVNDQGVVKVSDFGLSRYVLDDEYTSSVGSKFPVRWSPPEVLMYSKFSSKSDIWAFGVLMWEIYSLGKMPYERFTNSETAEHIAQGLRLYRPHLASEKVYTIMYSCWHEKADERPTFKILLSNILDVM
T3 sequence (P07948 whole entry): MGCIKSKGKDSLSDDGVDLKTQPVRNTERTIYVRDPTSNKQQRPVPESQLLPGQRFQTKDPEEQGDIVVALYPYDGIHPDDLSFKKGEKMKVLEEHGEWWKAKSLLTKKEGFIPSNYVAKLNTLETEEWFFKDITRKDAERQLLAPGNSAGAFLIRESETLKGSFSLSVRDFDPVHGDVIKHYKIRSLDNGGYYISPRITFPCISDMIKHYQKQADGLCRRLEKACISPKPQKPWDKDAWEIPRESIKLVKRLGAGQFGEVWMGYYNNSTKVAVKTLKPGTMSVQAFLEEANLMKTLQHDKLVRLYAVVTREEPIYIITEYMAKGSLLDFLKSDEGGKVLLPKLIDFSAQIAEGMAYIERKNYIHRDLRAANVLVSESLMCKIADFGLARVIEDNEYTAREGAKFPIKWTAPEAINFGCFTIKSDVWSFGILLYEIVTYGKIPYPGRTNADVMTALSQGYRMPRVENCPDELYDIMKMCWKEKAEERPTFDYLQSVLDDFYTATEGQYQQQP

COc1cc(-c2cn(C)c(=O)c3cnccc23)c(OC)cc1CN1CCC(OCCCCCC(=O)N2CCN(c3ccc4c(NCCN)nc(C5(c6ccc(Cl)cc6)CCCCC5)nc4c3)CC2)CC1 [DBr-1]
BRD9 protein loss (BRD9 [1]; 1000 nM, 6 h, HEK293 cells): about 90%
BRD9 degradation (BRD9 [1]; 1000 nM, after 30 min): 90%
DC50 (BRD9 [1]; 6 h, HEK293 cells, immunoblot, read-out: DC50 BRD9 estimated from dose-response curve): ~500 nM
DC50 (BRD9 [2]): 1040 nM

Cc1c(NC(=O)c2ccc(C(C)(C)O)cc2F)cc(F)cc1-c1ncnc2[nH]c(-c3ccc(CNCCOCCOCCOCCOCCOCCOCCOCCOCCOCCOCCOCCOCCC(=O)N4CCN(c5ccc6c(NCCN)nc(C7(c8ccc(Cl)cc8)CCCCC7)nc6c5)CC4)cc3)cc12 [DBt-5]
IC50 (BTK kinase domain): 62 nM

Cc1c(NC(=O)N2CC(O)(CC(C)(C)C)C2)cc(F)cc1-c1ncnc2[nH]c(-c3cnn(CC(=O)N4CCC5(CC4)CN(CCNC(=O)CCCC(=O)N4CCN(c6ccc7c(NCCN)nc(C8(c9ccc(Cl)cc9)CCCCC8)nc7c6)CC4)CCO5)c3)cc12 [DBt-10]
relative potency change between CBt sensitive and resistant TMD8 cells [3]: did not show any relative potency differences
IC50 (BTK kinase domain): 44 nM

Cc1nc(Nc2ncc(C(=O)Nc3c(C)cccc3Cl)s2)cc(N2CCC(OC3CCN(CCCCCCCC(=O)N4CCN(c5ccc6c(NCCN)nc(C7(c8ccc(Cl)cc8)CCCCC7)nc6c5)CC4)CC3)CC2)n1 [DDa-1]
LYN protein levels (LYN): not

CC(=O)N1CCN(c2ccc3c(NCCN)nc(C4(c5ccc(Cl)cc5)CCCCC4)nc3c2)CC1 [compound 13]
BRD9 protein reduction by individual binders (BRD9 [1]; 1000 nM, 6 h): No BRD9 protein reduction
